Data taken from article PMC4716659 (European journal of medicinal chemistry, 2015).
≈ marks a conversion by molar mass, not a printed value. Entries after “also recorded” stand apart in the source; their conditions may differ.

How the values were obtained:
S. aureus NRS1 (VISA) [1] = experiment: MIC, broth microdilution; assay type: cell-based, Staphylococcus aureus; conditions: Staphylococcus aureus, NRS1|VISA
S. aureus NRS19 (VISA) [2] = experiment: MBC, plating onto TSA; assay type: cell-based, Staphylococcus aureus; conditions: Staphylococcus aureus, NRS19|VISA
[3] = system: S. aureus ATCC 43300 (MRSA); experiment: MBC, plating onto TSA; assay type: cell-based, Staphylococcus aureus; conditions: Staphylococcus aureus, ATCC43300|MRSA
S. aureus USA300 (MRSA) [4] = experiment: MBC, plating onto TSA; assay type: cell-based, Staphylococcus aureus; conditions: Staphylococcus aureus, MRSA|USA300
S. aureus NRS37 (VISA) [5] = experiment: MBC, plating onto TSA; assay type: cell-based, Staphylococcus aureus; conditions: Staphylococcus aureus, NRS37|VISA
S. aureus NRS119 (MRSA) [6] = experiment: MBC, plating onto TSA; assay type: cell-based, Staphylococcus aureus; conditions: Staphylococcus aureus, MRSA|NRS119
S. aureus NRS194 (MRSA) [7] = experiment: MBC, plating onto TSA; assay type: cell-based, Staphylococcus aureus; conditions: Staphylococcus aureus, MRSA|NRS194
S. aureus NRS107 (MRSA) [8] = experiment: MIC, broth microdilution; assay type: cell-based, Staphylococcus aureus; conditions: Staphylococcus aureus, MRSA|NRS107
S. aureus VRS5 (VRSA) [9] = experiment: MBC, plating onto TSA; assay type: cell-based, Staphylococcus aureus; conditions: Staphylococcus aureus, VRSA
S. aureus USA300 (MRSA) [10] = experiment: MIC, broth microdilution; assay type: cell-based, Staphylococcus aureus; conditions: Staphylococcus aureus, MRSA|USA300
S. aureus VRS1 (VRSA) [11] = experiment: MBC, plating onto TSA; assay type: cell-based, Staphylococcus aureus; conditions: Staphylococcus aureus, VRSA
S. aureus VRS5 (VRSA) [12] = experiment: MIC, broth microdilution; assay type: cell-based, Staphylococcus aureus; conditions: Staphylococcus aureus, VRSA
[13] = system: human embryonic kidney (HEK293) cell line; experiment: In vitro cytotoxicity, MTS assay; conditions: 40 μg/mL
S. aureus USA500 (MRSA) [14] = experiment: MIC, broth microdilution; assay type: cell-based, Staphylococcus aureus; conditions: Staphylococcus aureus, MRSA|USA500
S. aureus NRS194 (MRSA) [15] = experiment: MIC, broth microdilution; assay type: cell-based, Staphylococcus aureus; conditions: Staphylococcus aureus, MRSA|NRS194
S. aureus NRS1 (VISA) [16] = experiment: MBC, plating onto TSA; assay type: cell-based, Staphylococcus aureus; conditions: Staphylococcus aureus, NRS1|VISA
S. aureus NRS19 (VISA) [17] = experiment: MIC, broth microdilution; assay type: cell-based, Staphylococcus aureus; conditions: Staphylococcus aureus, NRS19|VISA
S. aureus NRS37 (VISA) [18] = experiment: MIC, broth microdilution; assay type: cell-based, Staphylococcus aureus; conditions: Staphylococcus aureus, NRS37|VISA
S. aureus VRS4 (VRSA) [19] = experiment: MIC, broth microdilution; assay type: cell-based, Staphylococcus aureus; conditions: Staphylococcus aureus, VRSA
S. aureus USA 400 (MRSA) [20] = experiment: MBC, plating onto TSA; assay type: cell-based, Staphylococcus aureus; conditions: Staphylococcus aureus, MRSA|USA400
S. aureus VRS4 (VRSA) [21] = experiment: MBC, plating onto TSA; assay type: cell-based, Staphylococcus aureus; conditions: Staphylococcus aureus, VRSA
S. aureus USA500 (MRSA) [22] = experiment: MBC, plating onto TSA; assay type: cell-based, Staphylococcus aureus; conditions: Staphylococcus aureus, MRSA|USA500
S. aureus USA 400 (MRSA) [23] = experiment: MIC, broth microdilution; assay type: cell-based, Staphylococcus aureus; conditions: Staphylococcus aureus, MRSA|USA400
S. aureus NRS107 (MRSA) [24] = experiment: MBC, plating onto TSA; assay type: cell-based, Staphylococcus aureus; conditions: Staphylococcus aureus, MRSA|NRS107
S. aureus NRS119 (MRSA) [25] = experiment: MIC, broth microdilution; assay type: cell-based, Staphylococcus aureus; conditions: Staphylococcus aureus, MRSA|NRS119
S. aureus VRS1 (VRSA) [26] = experiment: MIC, broth microdilution; assay type: cell-based, Staphylococcus aureus; conditions: Staphylococcus aureus, VRSA
[27] = system: methicillin-resistant Staphylococcus aureus (MRSA) ATCC 43300; experiment: MIC, broth microdilution; assay type: cell-based; conditions: MRSA ATCC 43300
[28] = Staphylococcus aureus, ATCC43300|MRSA

Q: Which MIC (S. aureus NRS1 (VISA) [1]) does the source give for `[H]/N=C(\N)NN=C(C)c1sc(-c2ccc(-c3ccc(C(C)=O)cc3)cc2)nc1C` [22d, (E)-2-(1-(2-(4′-Acetyl-[1,1′-biphenyl]-4-yl)-4-methylthiazol-5-yl)ethylidene)hydrazinecarboximidamide] here?
A: 6.3 µg/mL (≈ 16.1 µM)

Q: And the MBC (S. aureus NRS19 (VISA) [2])?
A: 12.5 µg/mL (≈ 31.9 µM)

Q: And the MBC [3]?
A: 6.3 µg/mL (≈ 16.1 µM)

Q: What about the MBC (S. aureus USA300 (MRSA) [4]) of the same molecule?
A: 6.3 µg/mL (≈ 16.1 µM)

Q: And the MBC (S. aureus NRS37 (VISA) [5])?
A: 6.3 µg/mL (≈ 16.1 µM)

Q: What about the MBC (S. aureus NRS119 (MRSA) [6]) of the same molecule?
A: 12.5 µg/mL (≈ 31.9 µM)

Q: And the MBC (S. aureus NRS194 (MRSA) [7])?
A: 6.3 µg/mL (≈ 16.1 µM)

Q: And the MIC (S. aureus NRS107 (MRSA) [8])?
A: 6.3 µg/mL (≈ 16.1 µM)

Q: And the MBC (S. aureus VRS5 (VRSA) [9])?
A: 6.3 µg/mL (≈ 16.1 µM)

Q: And the MIC (S. aureus USA300 (MRSA) [10])?
A: 6.3 µg/mL (≈ 16.1 µM)

Q: What about the MBC (S. aureus VRS1 (VRSA) [11]) of the same molecule?
A: 3.1 µg/mL (≈ 7.92 µM)

Q: And the MIC (S. aureus VRS5 (VRSA) [12])?
A: 6.3 µg/mL (≈ 16.1 µM)

Q: What about the “toxicity to mammalian cells (MTS assay)” value [13] of the same molecule?
A: not toxic; also recorded: improved toxicity profile

Q: What about the MIC (S. aureus USA500 (MRSA) [14]) of the same molecule?
A: 6.3 µg/mL (≈ 16.1 µM)

Q: And the MIC (S. aureus NRS194 (MRSA) [15])?
A: 6.3 µg/mL (≈ 16.1 µM)

Q: And the MBC (S. aureus NRS1 (VISA) [16])?
A: 6.3 µg/mL (≈ 16.1 µM)

Q: And the MIC (S. aureus NRS19 (VISA) [17])?
A: 12.5 µg/mL (≈ 31.9 µM)

Q: And the MIC (S. aureus NRS37 (VISA) [18])?
A: 3.1 µg/mL (≈ 7.92 µM)

Q: And the MIC (S. aureus VRS4 (VRSA) [19])?
A: 1.6 µg/mL (≈ 4.09 µM)

Q: And the MBC (S. aureus USA 400 (MRSA) [20])?
A: 6.3 µg/mL (≈ 16.1 µM)

Q: And the MBC (S. aureus VRS4 (VRSA) [21])?
A: 3.1 µg/mL (≈ 7.92 µM)

Q: And the MBC (S. aureus USA500 (MRSA) [22])?
A: 6.3 µg/mL (≈ 16.1 µM)

Q: And the MIC (S. aureus USA 400 (MRSA) [23])?
A: 6.3 µg/mL (≈ 16.1 µM)

Q: And the MBC (S. aureus NRS107 (MRSA) [24])?
A: 12.5 µg/mL (≈ 31.9 µM)

Q: And the MIC (S. aureus NRS119 (MRSA) [25])?
A: 6.3 µg/mL (≈ 16.1 µM)

Q: And the MIC (S. aureus VRS1 (VRSA) [26])?
A: 3.1 µg/mL (≈ 7.92 µM)

Q: And the MIC [27, 28]?
A: 6.3 µg/mL (≈ 16.1 µM)

Q: Which MIC [27, 28] does the source give for `CC(=O)c1sc(-c2ccc(-c3ccc(C(F)(F)F)cc3)cc2)nc1C` [21c, 1-(4-Methyl-2-(4′-(trifluoromethyl)-[1,1′-biphenyl]-4-yl)thiazol-5-yl)ethanone] here?
A: > 46.2 µg/mL

Q: Which MIC [27] does the source give for `[H]/N=C(\N)NN=C(C)c1sc(-c2ccc(-c3ccc(O)cc3)cc2)nc1C` [22a, (E)-2-(1-(2-(4′-Hydroxy-[1,1′-biphenyl]-4-yl)-4-methylthiazol-5-yl)ethylidene)hydrazinecarboximidamide] here?
A: >46.7 µg/mL

Q: And the MIC [27, 28]?
A: > 36.9 µg/mL

Q: For `CC(=O)c1sc(-c2ccc(-c3cccc4ccccc34)cc2)nc1C` [compound 24, 1-(4-Methyl-2-(4-(naphthalen-1-yl)phenyl)thiazol-5-yl)ethanone], which MIC [27, 28] is on record?
A: > 43.9 µg/mL

Q: For `CCCCc1ccc(-c2nc(C)c(C(=O)NCN(C)C)s2)cc1` [compound 13, 2-(4-Butylphenyl)-N-[(dimethylamino)methyl]-4-methylthiazole-5-carboxamide], which MIC [27, 28] is on record?
A: 44.2 µg/mL (≈ 133 µM)

Q: For `CCCCc1ccc(-c2nc(C)c(C(=O)NC(=N)NC(=N)N)s2)cc1` [compound 10, 2-(4-Butylphenyl)-N-(N-carbamimidoylcarbamimidoyl)-4-methylthiazole-5-carboxamide], which MIC [27, 28] is on record?
A: > 45.8 µg/mL

Q: `CCCCc1ccc(-c2nc(C)c(-c3nnn[nH]3)s2)cc1` [compound 16, 2-(4-Butylphenyl)-4-methyl-5-(1H-tetrazol-5-yl)thiazole] was tested. Which MIC [27] did it give?
A: >38.3 µg/mL

Q: What about the MIC [27, 28] of the same molecule?
A: > 35.1 µg/mL

Q: Which MIC [27, 28] does the source give for `[H]/N=C(\N)NN=C(C)c1sc(-c2ccc(C#CCCCCCCC)cc2)nc1C` [compound 7, (E)-2-(1-(4-Methyl-2-[4-(non-1-yn-1-yl)phenyl]thiazol-5-yl)ethylidene)hydrazinecarboximidamide] here?
A: 12.6 µg/mL (≈ 31.9 µM)
